Like-named read-outs stand apart in the source and are kept apart here.
Format: in vivo, Rattus norvegicus
Conditions: about 3.4 mg difethialone per kg per os (homo/hetero 4/6, each racemic), mean of six male and female rats, daily vitamin K1
Protocol: C. Extraction of Difethialone from the Liver of Rats Treated with Difethialone for the Purpose of Analysis of the Various Enantiomers of Difethialone
About 0.525 g (±0.025 g) of rat liver is weighed out accurately and placed in a 50 mL polypropylene tube. 10 mL of acetone are added and the suspension is homogenized using an Ultra-Turrax® homogenizer/disperser for a time of about 30 seconds. The homogenizer/disperser shaft is rinsed with hot water and then twice with 20 mL of acetone in a polypropylene tube. The homogenate is centrifuged for 5 minutes at a centrifugation speed of 3000 rpm (revolutions per minute). The supernatant is collected and transferred into a test tube. The sample is subjected to evaporation under a stream of nitrogen (N2) at a temperature of 40° C. so as to form a dry extract.
1 mL of acetonitrile is added to the tube containing the dry extract so as to dissolve it. The acetonitrile solution is washed twice successively with 1 mL of hexane. The lipid-free extract is dried under a stream of nitrogen (N2) at a temperature of 40° C. and is then taken up in 0.5 mL of methanol and dissolved by vortex stirring. 0.5 mL of ultra-pure (Milli-Q) water is then added. The sample is vortex-homogenized.
1 mL of dichloromethane (CH2Cl2), then 1 mL of methanol (CH3OH), then 1 mL of ultra-pure (Milli-Q) water are passed through an Oasis HLB 1 cc cartridge (WAT094225, Waters). The lipid-free liver extract (1 mL MeOH/Milli-Q H2O) containing difethialone is then loaded onto the top of the preconditioned cartridge. The liver extract penetrates through the cartridge by gravity on contact with the solid phase of the cartridge. 1 mL of washing solution formed from methanol (CH3OH) and ultra-pure water (H2O) in a 90/10 volume proportion is loaded onto the top of the cartridge. The cartridge is dried by suction under vacuum connected to the bottom of the cartridge. 1 mL of eluting solution formed from dichloromethane (CH2Cl2) and methanol (CH3OH) in a 90/10 volume proportion is then loaded onto the top of the cartridge and an eluate comprising difethialone is collected at the bottom of the cartridge. The solvent of the eluate is evaporated off under a stream of nitrogen (N2) at a temperature of 40° C. The sample is taken up in 0.5 mL of acetonitrile (NC-CH3) and the acetonitrile solution containing difethialone is filtered through a 0.2 μm filter.
The acetonitrile solution containing difethialone is analysed by high-pressure liquid chromatography on a LUX® Cellulose-3 chiral column (150×2 mm, particle size of 3 μm) (Phenomenex, Le Pecq, France) as described in point A2) above. The retention time value (t1) of the laevorotatory enantiomer of said homo-stereoisomer of difethialone according to the invention is between 7.8 minutes and 8.4 minutes (the maximum value of the peak corresponding to the […] enantiomer of said homo-stereoisomer being about 8.1 minutes, as described in FIG. 1), depending on the operating conditions, especially depending on the column temperature conditions. The retention time value (t4) of the dextrorotatory enantiomer of said homo-stereoisomer is between 13.3 minutes and 15.1 minutes (the maximum value of the peak corresponding to the […] enantiomer of said homo-stereoisomer being about 14.4 minutes), depending on the operating conditions, especially depending on the column temperature conditions. The retention time value (t3) of the dextrorotatory enantiomer of said hetero-stereoisomer of difethialone is between 11.2 minutes and 12.3 minutes (the maximum value of the peak corresponding to the dextrorotatory enantiomer of said hetero-stereoisomer being about 11.7 minutes), depending on the operating conditions, especially depending on the column temperature conditions. […]

Row | SMILES | Hepatic content (4 hours after tube-feeding) [ng/g] | Hepatic content (9 hours after tube-feeding) [ng/g] | Hepatic content (24 hours after tube-feeding) [ng/g] | Hepatic content (48 hours after tube-feeding) [ng/g] | Hepatic content (120 hours after tube-feeding) [ng/g] | Hepatic content (168 hours after tube-feeding) [ng/g] | Hepatic content (216 hours after tube-feeding) [ng/g]
1 | O=c1sc2ccccc2c(O)c1C1CC(c2ccc(-c3ccc(Br)cc3)cc2)Cc2ccccc21 (centres unmarked) [DFN-Hetero-dextro] | 10589.5 | 12155.5 | 8102 | 7974.5 | 5431.5 | 3011 | 4030.5
2 | O=c1sc2ccccc2c(O)c1C1CC(c2ccc(-c3ccc(Br)cc3)cc2)Cc2ccccc21 (centres unmarked) [DFN-Hetero-laevo] | 5380.5 | 5869.5 | 3613.5 | 2804 | 1211 | 392.5 | 545
